Measured values from patent US20250170252A1, “QUINONE PROTECTED FORMS AND CONJUGATES” (CAMBRIDGE ENTERPRISE LIMITED, priority 2022, published 2025).

Assays:
[1] = In vitro redox-cycling ability, phenol red/horseradish peroxidase assay; format: biochemical; conditions: HRP/phenol-red reporter assay, absorbance at 610 nm; up to 25 μM
Protocol: In vitro redox cycling capability of compounds was assessed by phenol red/horseradish peroxidase (HRP) assay by adaption of a previously described protocol (Assay Drug Dev. Technol., 2008, 6, 505-518). Briefly, stocks were prepared as follows: (1) DTT to a concentration of 2.4 μM in PBS pH 7.4 buffer; (2) compound stocks in PBS pH 7.4 buffer to 3× the desired concentration by 1000× dilution of DMSO stocks; (3) a stock of phenol-red-HRP detection reagent containing 300 μg/mL phenol red and 180 μg/mL HRP enzyme in PBS pH 7.4 buffer; (4) a stock of 1 M NaOH in water; (5) a stock of 100 μM H2O2 in PBS prepared by addition of a 30% solution of H2O2 in water into 1000 μL of PBS. Into each well of a 96 well clear flat-bottomed plate was then added 40 μL of compound stock in PBS followed by 40 μL of DTT stock, followed immediately by 40 μL of phenol-red-HRP reagent. A positive control with 100 μM H2O2 added in place of compound was included. The plate was incubated in the dark at room temperature for 15 min. Following this 20 μL of 1 M NaOH was added to each well to terminate the reaction. Absorbance was immediately measured at 610 nm (MiniMax i3x Imager, Molecular Devices). Absorbance of treated wells was normalised to control wells treated with PBS only (zero redox cycling). All readings were performed in triplicate and error bars display standard error of the mean.

[2] = test system: MCF-7 (breast cancer cell line); test: Viability assay (CellTiter-Blue), MCF-7; format: cell-based; conditions: Homo sapiens, MCF7
[3] = test system: MOLM-13; test: Toxicity with/without β-glucuronidase, MOLM-13; format: cell-based; conditions: Homo sapiens, MOLM-13; read-out: IC50 β-lapachone, 1
Protocol: Assays assessing cytotoxicity of β-lapachone and derivatives were performed by CellTiter-Blue assay (Promega) according to the manufacturer's instructions. Briefly, adherent cancer-cell lines were plated at 20,000 cells/well in 96 well plates or suspension cell lines were plated at a concentration of 2×10^5 cells/mL in 24 well plates. Compound stocks in media were made by dilution of DMSO stocks containing the compound of interest to obtain a final in-plate DMSO concentration of only 0.1%. Incubation was performed for 48 h. Following incubation, media was replaced with media containing CellTiter-Blue (Promega) in 1:10 dilution and the plates were incubated for 1.5-4 h. The fluorescence of the plates was recorded (excitation 555 nm, emission 585 nm, MiniMax i3x Reader, Molecular Devices).
Cell viability was calculated by division of the fluorescence intensity of treated wells by that of the calculated average fluorescence intensity of replicate negative control wells containing cells with 0.1% DMSO only. Values and reported error bars represent the mean and standard error of the mean of three triplicate repeats for each concentration tested. IC50 values were calculated using GraphPad Prism 8 software.
The potential of compound 37a, glucuronide-PHB-BL, as a prodrug was investigated. As discussed above, at physiological pH the compound has a relatively slow-release rate. Toxicity of Gluc-PHB-BL 37a was tested against a range of cell lines with and without added β-glucuronidase. Addition of the enzyme mimics conditions of the solid tumour environment.

[4] = test system: Panc-1 pancreatic cancer cell line; test: CellTiter Glo viability assay, Panc-1; format: cell-based; conditions: Homo sapiens; Panc-1, β-lapachone alone, 48 hours; read-out: IC50
Protocol: For CellTiter Glo viability assays, 10,000 cells per well were plated on Day 1 and were allowed to adhere to the plate surface for 24 hours. Optimized concentration ranges of prodrugs were determined and made via serial dilution. […] Cells were incubated with compound for 48 hours and viability was assessed on Day 4 using the CellTiter Glo Viability assay which measures metabolically active cells by quantifying the amount of ATP present.
Panc-1 cells were obtained from Tony Kouzarides' lab in the Gurdon Institute at the University of Cambridge and put into culture at passage 10 containing DMEM media (Gibco) supplemented with 1% Pen-Strep antibiotic (Gibco), 1% L-glutamine, and 10% fetal bovine serum (FBS, sterile-filtered). Aspc-1 cells were bought commercially from the American Type Culture Collection (ATCC) and put into culture containing RPMI 1640 media (Gibco) supplemented with 1% Pen-Strep antibiotic (Gibco), 1% L-glutamine, and 20% fetal bovine serum (FBS, sterile-filtered). All cell lines were started at passage 10 and passaged every 3 days by centrifuging at 1000 rpm for 4 minutes.

- IC50 [2]: 1900 nM
- IC50 [4]: 2040 nM
Compound: CC1(C)CCC2=C(O1)c1ccccc1C(=O)C2=O [Compound 1, β-lapachone, reference compound]
- redox activity (in vitro redox-cycling capability) [1]: saturates the assay above 10 μM concentration
- IC50 [3]: 12100 nM
